Patent US5721207A, “Method for treatment of pain” (Innapharma, Inc., priority 1995, dated 1998)

Columns and labels:
rat [1] = assay: Rat hot plate analgesiometric test, dose response of single intrathecal elcatonin (Example 8); format: in vivo
Description: The doses tested were 0.2, 0.8, 1.6, 2.4, and 3.6 IU/kg. The desired dose was injected in a volume of 37.5 μL/kg, followed by a catheter wash-out with 10 μL saline, via the intrathecal route.
A total of 113 adult male rats, of weights of 350 g to 400 g, were used. Intrathecal catheters were surgically implanted as described in Example 4.
Data were analyzed for statistical significance, and a point estimate (mean and standard deviation) are used to analyze analgesic activity for each dose of the drug for a selected time period. Nonparametric statistics were calculated to address the level of significance of any difference between control and test group.

rat [2] = assay: Rat hot plate test, single intravenous elcatonin (Example 10); format: in vivo
Description: A total of 24 rats, ranging in weight from 320 to 420 g, was used in this study. Four to eight rats were used for each dose level. […] The doses used were 10, 30, 100 and 300 IU/kg (1.61, 4.83, 16.1 and 48.3 μg/kg, respectively).

[Des-Cys^1,ASU^7 ]-Calcitonin, Eel [Elcatonin]
antinociceptive response (statistics) (rat [1]; 0.2 IU/kg intrathecal (lowest dose tested)): did not produce a statistically significant response
Hot Plate Latency (Mean ± SEM) (rat [1]; 0.2 IU/kg intrathecal single, 0 hr (baseline)): 10.6 ± 0.8 s
Hot Plate Latency (Mean ± SEM) (rat [1]; 0.2 IU/kg intrathecal single, 0.25 hr after administration): 13.0 ± 1.1 s
Hot Plate Latency (Mean ± SEM) (rat [1]; 0.2 IU/kg intrathecal single, 0.5 hr after administration): 12.9 ± 0.7 s
Hot Plate Latency (Mean ± SEM) (rat [1]; 0.2 IU/kg intrathecal single, 1 hr after administration): 12.7 ± 0.9 s
Hot Plate Latency (Mean ± SEM) (rat [1]; 0.2 IU/kg intrathecal single, 3 hr after administration): 13.1 ± 0.7 s
Hot Plate Latency (Mean ± SEM) (rat [1]; 0.2 IU/kg intrathecal single, 6 hr after administration): 12.1 ± 0.5 s
Hot Plate Latency (Mean ± SEM) (rat [1]; 0.2 IU/kg intrathecal single, 24 hr after administration): 10.8 ± 0.7 s
Hot Plate Latency (Mean ± SEM) (rat [1]; 0.8 IU/kg intrathecal single, 0 hr (baseline)): 9.8 ± 0.8 s
Hot Plate Latency (Mean ± SEM) (rat [1]; 0.8 IU/kg intrathecal single, 0.25 hr after administration): 15.1 ± 1.5 s
Hot Plate Latency (Mean ± SEM) (rat [1]; 0.8 IU/kg intrathecal single, 0.5 hr after administration): 15.0 ± 1.5 s
Hot Plate Latency (Mean ± SEM) (rat [1]; 0.8 IU/kg intrathecal single, 1 hr after administration): 15.2 ± 1.3 s
Hot Plate Latency (Mean ± SEM) (rat [1]; 0.8 IU/kg intrathecal single, 3 hr after administration): 20.0 ± 2.8 s
Hot Plate Latency (Mean ± SEM) (rat [1]; 0.8 IU/kg intrathecal single, 6 hr after administration): 12.3 ± 1.0 s
Hot Plate Latency (Mean ± SEM) (rat [1]; 0.8 IU/kg intrathecal single, 24 hr after administration): 11.7 ± 1.0 s
antinociceptive response (statistics) (rat [1]; 0.8 and 1.6 IU/kg intrathecal): significant antinociception
Hot Plate Latency (Mean ± SEM) (rat [1]; 1.6 IU/kg intrathecal single, 0 hr (baseline)): 9.2 ± 0.5 s
Hot Plate Latency (Mean ± SEM) (rat [1]; 1.6 IU/kg intrathecal single, 0.25 hr after administration): 16.4 ± 1.2 s
Hot Plate Latency (Mean ± SEM) (rat [1]; 1.6 IU/kg intrathecal single, 0.5 hr after administration): 16.0 ± 1.0 s
Hot Plate Latency (Mean ± SEM) (rat [1]; 1.6 IU/kg intrathecal single, 1 hr after administration): 16.4 ± 1.1 s
Hot Plate Latency (Mean ± SEM) (rat [1]; 1.6 IU/kg intrathecal single, 3 hr after administration): 15.1 ± 0.9 s
Hot Plate Latency (Mean ± SEM) (rat [1]; 1.6 IU/kg intrathecal single, 6 hr after administration): 13.6 ± 0.8 s
Hot Plate Latency (Mean ± SEM) (rat [1]; 1.6 IU/kg intrathecal single, 24 hr after administration): 10.9 ± 0.4 s
Hot Plate Latency (Mean ± SEM) (rat [1]; 2.4 IU/kg intrathecal single, 0 hr (baseline)): 9.0 ± 0.7 s
Hot Plate Latency (Mean ± SEM) (rat [1]; 2.4 IU/kg intrathecal single, 0.25 hr after administration): 20.0 ± 1.5 s
Hot Plate Latency (Mean ± SEM) (rat [1]; 2.4 IU/kg intrathecal single, 0.5 hr after administration): 20.1 ± 1.9 s
Hot Plate Latency (Mean ± SEM) (rat [1]; 2.4 IU/kg intrathecal single, 1 hr after administration): 19.5 ± 1.8 s
Hot Plate Latency (Mean ± SEM) (rat [1]; 2.4 IU/kg intrathecal single, 3 hr after administration): 21.8 ± 2.1 s
Hot Plate Latency (Mean ± SEM) (rat [1]; 2.4 IU/kg intrathecal single, 6 hr after administration): 12.6 ± 1.2 s
Hot Plate Latency (Mean ± SEM) (rat [1]; 2.4 IU/kg intrathecal single, 24 hr after administration): 10.3 ± 1.2 s
antinociceptive response (statistics) (rat [1]; 2.4 and 3.6 IU/kg intrathecal): strong antinociception
Hot Plate Latency (Mean ± SEM) (rat [1]; 3.6 IU/kg intrathecal single, 0 hr (baseline)): 10.4 ± 0.9 s
Hot Plate Latency (Mean ± SEM) (rat [1]; 3.6 IU/kg intrathecal single, 0.25 hr after administration): 19.4 ± 1.6 s
Hot Plate Latency (Mean ± SEM) (rat [1]; 3.6 IU/kg intrathecal single, 0.5 hr after administration): 21.4 ± 1.8 s
Hot Plate Latency (Mean ± SEM) (rat [1]; 3.6 IU/kg intrathecal single, 1 hr after administration): 23.5 ± 2.5 s
Hot Plate Latency (Mean ± SEM) (rat [1]; 3.6 IU/kg intrathecal single, 3 hr after administration): 19.5 ± 1.0 s
Hot Plate Latency (Mean ± SEM) (rat [1]; 3.6 IU/kg intrathecal single, 6 hr after administration): 15.7 ± 1.3 s
Hot Plate Latency (Mean ± SEM) (rat [1]; 3.6 IU/kg intrathecal single, 24 hr after administration): 10.2 ± 1.0 s
dose relation of hot plate latencies (rat [1]; intrathecal, 0.2-3.6 IU/kg): increased hot plate latencies in a dose-related fashion
onset of antinociception after injection (rat [1]; intrathecal, 0.2-3.6 IU/kg): ≤ 15 min
duration of antinociception post-injection (rat [1]; intrathecal, all doses used): at least 6 hours
time of peak antinociception (rat [1]; intrathecal, all doses used): 30 to 60 min
hot plate latency by 24 hr post-injection (rat [1]; intrathecal, most tests): returned to baseline
antinociception at 6 hrs after injection (rat [1]; intrathecal, three higher doses): Significant antinociception was also apparent
antinociceptive results, intrathecal compared with intravenous (rat [1]; rat hot plate): unexpectedly improved antinociceptive results as compared with intravenous injection
Hot Plate Latency (Mean ± SEM) (rat [2]; 10.0 IU/kg (1.61 μg/kg) intravenous single, 0 hr (baseline)): 12.03 ± 1.02 s
Hot Plate Latency (Mean ± SEM) (rat [2]; 10.0 IU/kg (1.61 μg/kg) intravenous single, 0.25 hr): 11.95 ± 1.40 s
Hot Plate Latency (Mean ± SEM) (rat [2]; 10.0 IU/kg (1.61 μg/kg) intravenous single, 0.5 hr): 15.64 ± 2.39 s
Hot Plate Latency (Mean ± SEM) (rat [2]; 10.0 IU/kg (1.61 μg/kg) intravenous single, 1 hr): 14.95 ± 2.92 s
Hot Plate Latency (Mean ± SEM) (rat [2]; 10.0 IU/kg (1.61 μg/kg) intravenous single, 3 hr): 14.11 ± 0.94 s
Hot Plate Latency (Mean ± SEM) (rat [2]; 10.0 IU/kg (1.61 μg/kg) intravenous single, 6 hr): 10.45 ± 1.03 s
Hot Plate Latency (Mean ± SEM) (rat [2]; 10.0 IU/kg (1.61 μg/kg) intravenous single, 24 hr): 8.86 ± 1.23 s
Hot Plate Latency (Mean ± SEM) (rat [2]; 30.0 IU/kg (4.83 μg/kg) intravenous single, 0 hr (baseline)): 10.71 ± 1.02 s
Hot Plate Latency (Mean ± SEM) (rat [2]; 30.0 IU/kg (4.83 μg/kg) intravenous single, 0.25 hr): 10.04 ± 0.96 s
Hot Plate Latency (Mean ± SEM) (rat [2]; 30.0 IU/kg (4.83 μg/kg) intravenous single, 0.5 hr): 12.18 ± 1.22 s
Hot Plate Latency (Mean ± SEM) (rat [2]; 30.0 IU/kg (4.83 μg/kg) intravenous single, 1 hr): 14.14 ± 1.14 s
Hot Plate Latency (Mean ± SEM) (rat [2]; 30.0 IU/kg (4.83 μg/kg) intravenous single, 3 hr): 14.26 ± 1.39 s
Hot Plate Latency (Mean ± SEM) (rat [2]; 30.0 IU/kg (4.83 μg/kg) intravenous single, 6 hr): 15.12 ± 2.20 s
Hot Plate Latency (Mean ± SEM) (rat [2]; 30.0 IU/kg (4.83 μg/kg) intravenous single, 24 hr): 10.76 ± 1.25 s
Hot Plate Latency (Mean ± SEM) (rat [2]; 100.0 IU/kg (16.1 μg/kg) intravenous single, 0 hr (baseline)): 13.53 ± 1.63 s
Hot Plate Latency (Mean ± SEM) (rat [2]; 100.0 IU/kg (16.1 μg/kg) intravenous single, 0.25 hr): 11.05 ± 1.99 s
Hot Plate Latency (Mean ± SEM) (rat [2]; 100.0 IU/kg (16.1 μg/kg) intravenous single, 0.5 hr): 9.63 ± 1.21 s
